Laboratory results reported in patent US20100216779A1 (GLAXOSMITHKLINE LLC, priority 2007, published 2010).

Tested on: various cell lines of different tumor origins
Assay: Inhibition of cell proliferation, InCell Analyzer assay
Type: cell-based
Protocol: C. Inhibition of Cell Proliferation
For InCell Analyser assay, various cell lines of different tumor origins were grown to 70-80% confluency in appropriate culture media containing 10% fetal bovine serum at 37° C. in a 5% CO2 incubator. On day-1, cells were seeded at 2 densities in 384-well plates and incubated at 37° C. overnight. Stock compound plates were prepared in advance which contained dimethyl sulfoxide (DMSO) alone and a 9-point half-log decreasing dose range of the compound of Example 22 in DMSO. The compound plates were stored at −80° C. and each plate was only thawed once and used. On day 0, the main assay plates received compound or DMSO via a sonic delivery system (ECHO). The highest final concentration of compound of the dose range in the culture plates was 10 uM. These plates were cultured at 37° C. for 3 days. […] On day 3, the compound treated plates were stained and fixed to measure proliferation, apoptosis, and mitotic index using an InCell1000 analyser. A nuclear stain was used to identify cells in the wells. By counting the number of nuclei, the proliferation index of compound treated groups were calculated as a percentage relative to the DMSO control, which was set to 100%. The IC50 values were calculated using model 205 in ExcelFit.

SMILES: COc1cc(N2CCC(N3CCCCC3)CC2)ccc1Nc1nccc(-c2c(-c3cccc(C(=O)Nc4c(F)cccc4F)c3)nc3ccccn23)n1 [Example 22, 3-[3-(2-{[4-(1,4′-bipiperidin-1′-yl)-2-(methyloxy)phenyl]amino}-4-pyrimidinyl)imidazo[1,2-a]pyridin-2-yl]-N-(2,6-difluorophenyl)benzamide]
- IC50 (Homo sapiens, NCI-H292, NCI-H292, Lung): 1 to 5 µM
- IC50 (Homo sapiens, NCI-H295R, Cervix): > 5 µM
- IC50 (Homo sapiens, NCI-H358, NCI-H358, Lung): < 1 µM
- IC50 (Homo sapiens, NCI-H460, NCI-H460, Lung): 1 to 5 µM
- IC50 (Homo sapiens, NCI-H520, NCI-H520, Lung): 1 to 5 µM
- IC50 (Homo sapiens, NCI-H522, NCI-H522, Lung): 1 to 5 µM
- IC50 (Homo sapiens, NCI-H526, NCI-H526, Lung): < 1 µM
- IC50 (Homo sapiens, NCI-H596, NCI-H596, Lung): > 5 µM
- IC50 (Homo sapiens, NCI-H630, NCI-H630, Rectum): < 1 µM
- IC50 (Homo sapiens, NCI-H661, NCI-H661, Lung): 1 to 5 µM
- IC50 (Homo sapiens, NCI-H716, NCI-H716, Colon): < 1 µM
- IC50 (Homo sapiens, NCI-H727, NCI-H727, Lung): 1 to 5 µM
- IC50 (Homo sapiens, NCI-H747, NCI-H747, Colon): 1 to 5 µM
- IC50 (Homo sapiens, NCI-H1395, NCI-H1395, Lung): > 5 µM
- IC50 (Homo sapiens, NCI-H2087, NCI-H2087, Lung): > 5 µM
- IC50 (Homo sapiens, NCI-N87, NCI-N87, Stomach): < 1 µM
- IC50 (Homo sapiens, NCI/ADR-RES, Breast): 1 to 5 µM
- IC50 (Homo sapiens, OV-90, OV-90, Ovary): > 5 µM
- IC50 (Homo sapiens, OVCAR-3, OVCAR-3, Ovary): > 5 µM
- IC50 (Homo sapiens, OVCAR-4, OVCAR-4, Ovary): 1 to 5 µM
- IC50 (Homo sapiens, OVCAR-5, OVCAR-5, Ovary): < 1 µM
- IC50 (Homo sapiens, OVCAR-8, OVCAR-8, Ovary): 1 to 5 µM
- IC50 (Homo sapiens, RL95-2, RL95-2, Uterus): 1 to 5 µM
- IC50 (Homo sapiens, RPMI-2650, RPMI2650, H&N): 1 to 5 µM
- IC50 (Homo sapiens, RPMI-6666, RPMI6666, lymphoma - Hodgkin): 1 to 5 µM
- IC50 (Homo sapiens, RPMI-8226, RPMI8226, Myeloma): < 1 µM
- IC50 (Homo sapiens, RWPE-1, RWPE-1, Prostate): < 1 µM
- IC50 (Homo sapiens, RXF 393, RXF393, Kidney): 1 to 5 µM
- IC50 (Homo sapiens, Raji, lymphoma - Burkitt): 1 to 5 µM
- IC50 (Homo sapiens, SAOS-2, SaOS-2, Sarcoma): < 1 µM
- IC50 (Homo sapiens, SCC-4, SCC-4, H&N): 1 to 5 µM
- IC50 (Homo sapiens, SCC-9, SCC-9, H&N): > 5 µM
- IC50 (Homo sapiens, SCC-15, SCC-15, H&N): > 5 µM
- IC50 (Homo sapiens, SCC-25, SCC-25, H&N): < 1 µM
- IC50 (Homo sapiens, SCaBER, Bladder): 1 to 5 µM
- IC50 (Homo sapiens, SF-268, SF-268, glioma): 1 to 5 µM
- IC50 (Homo sapiens, SF-295, SF-295, glioma): > 5 µM
- IC50 (Homo sapiens, SF-539, SF-539, glioma): > 5 µM
- IC50 (Homo sapiens, SHP77, SHP-77, Lung): 1 to 5 µM
- IC50 (Homo sapiens, SJRH30, SJRH30, Sarcoma - rhabdomyosarcoma): < 1 µM
- IC50 (Homo sapiens, SK-BR-3, SK-BR-3, Breast): 1 to 5 µM
- IC50 (Homo sapiens, SK-LMS-1, SK-LM-S1, Sarcoma): 1 to 5 µM
- IC50 (Homo sapiens, SK-MEL3, SK-MEL-3, Skin): > 5 µM
- IC50 (Homo sapiens, SK-MEL-1, SK-MEL-1, Skin): > 5 µM
- IC50 (Homo sapiens, SK-MEL-28, SK-MEL-28, Skin): 1 to 5 µM
- IC50 (Homo sapiens, SK-N-AS, neuroblastoma): 1 to 5 µM
- IC50 (Homo sapiens, SK-N-DZ, neuroblastoma): 1 to 5 µM
- IC50 (Homo sapiens, SK-N-FI, neuroblastoma): < 1 µM
- IC50 (Homo sapiens, SK-NEP-1, SK-NEP-1, Kidney): > 5 µM
- IC50 (Homo sapiens, SK-OV-3, SK-OV-3, Ovary): > 5 µM
- IC50 (Homo sapiens, SK-UT-1, SK-UT-1, Sarcoma): 1 to 5 µM
- IC50 (Homo sapiens, SN12C, Kidney): 1 to 5 µM
- IC50 (Homo sapiens, SNB-19, SNB-19, glioma): > 5 µM
- IC50 (Homo sapiens, SNB-75, SNB-75, glioma): > 5 µM
- IC50 (Homo sapiens, SNU1, SNU-1, Stomach): > 5 µM
- IC50 (Homo sapiens, SNU-5, SNU-5, Stomach): > 5 µM
- IC50 (Homo sapiens, SNU-16, SNU-16, Stomach): > 5 µM
- IC50 (Homo sapiens, SNU-182, SNU-182, Liver): 1 to 5 µM
- IC50 (Homo sapiens, SNU-387, SNU-387, Liver): 1 to 5 µM
- IC50 (Homo sapiens, SNU-398, SNU-398, Liver): 1 to 5 µM
- IC50 (Homo sapiens, SNU-423, SNU-423, Liver): 1 to 5 µM
- IC50 (Homo sapiens, SNU-449, SNU-449, Liver): > 5 µM
- IC50 (Homo sapiens, SNU-475, SNU-475, Liver): 1 to 5 µM
- IC50 (Homo sapiens, ST486, ST486, lymphoma - Burkitt): 1 to 5 µM
- IC50 (Homo sapiens, SW48, SW48, Colon): < 1 µM
- IC50 (Homo sapiens, SW480, SW480, Colon): 1 to 5 µM
- IC50 (Homo sapiens, SW684, SW684, Sarcoma): > 5 µM
- IC50 (Homo sapiens, SW756, SW756, Cervix): 1 to 5 µM
- IC50 (Homo sapiens, SW780, SW780, Bladder): > 5 µM
- IC50 (Homo sapiens, SW837, SW837, Colon): > 5 µM
- IC50 (Homo sapiens, SW872, SW872, Sarcoma): 1 to 5 µM
- IC50 (Homo sapiens, SW948, SW948, Colon): > 5 µM
- IC50 (Homo sapiens, SW 954, SW954, Vulva): < 1 µM
- IC50 (Homo sapiens, SW 962, SW962, Vulva): < 1 µM
- IC50 (Homo sapiens, SW982, SW982, Sarcoma): > 5 µM
- IC50 (Homo sapiens, SW1088, SW1088, glioma): 1 to 5 µM
- IC50 (Homo sapiens, SW 1116, SW1116, Colon): > 5 µM
- IC50 (Homo sapiens, SW1353, SW1353, Sarcoma): > 5 µM
- IC50 (Homo sapiens, SW1417, SW1417, Colon): < 1 µM
- IC50 (Homo sapiens, SW1463, SW1463, Rectum): < 1 µM
- IC50 (Homo sapiens, SW1783, SW1783, glioma): > 5 µM
- IC50 (Homo sapiens, SW1990, SW1990, Pancreas): 1 to 5 µM
- IC50 (Homo sapiens, SW-403, SW403, Colon): < 1 µM
- IC50 (Homo sapiens, SW-620, SW620, Colon): 1 to 5 µM
- IC50 (Homo sapiens, SiHa, Cervix): 1 to 5 µM
- IC50 (Homo sapiens, T47D, T-47D, Breast): 1 to 5 µM
- IC50 (Homo sapiens, THP-1, THP-1, AML): 1 to 5 µM
- IC50 (Homo sapiens, TK-10, TK-10, Kidney): 1 to 5 µM
- IC50 (Homo sapiens, U2OS, U-2OS, Sarcoma): 1 to 5 µM
- IC50 (Homo sapiens, U138-MG, U-138MG, glioma): > 5 µM
- IC50 (Homo sapiens, U-87 MG, glioma): > 5 µM
- IC50 (Homo sapiens, U-251, U251, glioma): 1 to 5 µM
- IC50 (Homo sapiens, UACC-62, UACC-62, Skin): 1 to 5 µM
- IC50 (Homo sapiens, UACC-257, UACC-257, Skin): 1 to 5 µM
- IC50 (Homo sapiens, UACC-812, UACC-812, Breast): > 5 µM
- IC50 (Homo sapiens, UMUC3, UM-UC-3, Bladder): > 5 µM
- IC50 (Homo sapiens, UO-31, UO-31, Kidney): 1 to 5 µM
- IC50 (Homo sapiens, WM-115, WM115, Skin): > 5 µM
- IC50 (Homo sapiens, YAPC, Pancreas): > 5 µM
- IC50 (Homo sapiens, ZR-75-1, ZR-75-1, Breast): > 5 µM
- IC50 (J82, Bladder): 1 to 5 µM
- IC50 (JAR, Placenta): 1 to 5 µM
- IC50 (KHOS-240S, Sarcoma): 1 to 5 µM
- IC50 (KLE, Uterus): 1 to 5 µM
- IC50 (KPL-1, KPL-1, Breast): 1 to 5 µM
- IC50 (M14, Skin): 1 to 5 µM
- IC50 (MC-CAR, #N/A): 1 to 5 µM
- IC50 (ML-2, AML): > 5 µM
- IC50 (MT-3, Breast): < 1 µM
- IC50 (MX-1, Breast): 1 to 5 µM
- IC50 (NALM-1, CML blast phase): 1 to 5 µM
- IC50 (NCI-H322, NCI-H322, Lung): < 1 µM
- IC50 (NCI-H660, NCI-H660, Prostate): > 5 µM
- IC50 (RD, Sarcoma - rhabdomyosarcoma): > 5 µM
- IC50 (RD-ES, Sarcoma): < 1 µM
- IC50 (RL, lymphoma - non-Hodgkin): 1 to 5 µM
- IC50 (SCC12, SCC-12, H&N): > 5 µM
- IC50 (SCC-13, SCC-13, H&N): > 5 µM
- IC50 (SCLC-3, Lung): 1 to 5 µM
- IC50 (SH-4, Skin): 1 to 5 µM
- IC50 (SKO-007, SKO-007, Myeloma): 1 to 5 µM
- IC50 (SR, lymphoma - large cell immunoblastic): 1 to 5 µM
- IC50 (SW579, SW579, Thyroid): 1 to 5 µM
- IC50 (T24, Bladder): > 5 µM
- IC50 (T-cell, MJ, lymphoma - cutaneous T cell): 1 to 5 µM
- IC50 (TE 381.T, TE381.T, Sarcoma - rhabdomyosarcoma): < 1 µM
- IC50 (TO 175.T, TO175.T, Skin): 1 to 5 µM
- IC50 (U266B1, Myeloma): 1 to 5 µM
- IC50 (Y79, Eye): > 5 µM
